Molecules are shown by their SMILES.

The target in this test is H1047R PIK3CA enzyme (Homo sapiens, UniProt P42336, H1047R). As to the kind of experiment: ADP-Glo Biochemical PIK3CA Kinase Assay. (ADP-Glo first removes unused ATP, then detects ADP through luciferase.)
Chain of H1047R PIK3CA enzyme (P42336 whole entry H1047R): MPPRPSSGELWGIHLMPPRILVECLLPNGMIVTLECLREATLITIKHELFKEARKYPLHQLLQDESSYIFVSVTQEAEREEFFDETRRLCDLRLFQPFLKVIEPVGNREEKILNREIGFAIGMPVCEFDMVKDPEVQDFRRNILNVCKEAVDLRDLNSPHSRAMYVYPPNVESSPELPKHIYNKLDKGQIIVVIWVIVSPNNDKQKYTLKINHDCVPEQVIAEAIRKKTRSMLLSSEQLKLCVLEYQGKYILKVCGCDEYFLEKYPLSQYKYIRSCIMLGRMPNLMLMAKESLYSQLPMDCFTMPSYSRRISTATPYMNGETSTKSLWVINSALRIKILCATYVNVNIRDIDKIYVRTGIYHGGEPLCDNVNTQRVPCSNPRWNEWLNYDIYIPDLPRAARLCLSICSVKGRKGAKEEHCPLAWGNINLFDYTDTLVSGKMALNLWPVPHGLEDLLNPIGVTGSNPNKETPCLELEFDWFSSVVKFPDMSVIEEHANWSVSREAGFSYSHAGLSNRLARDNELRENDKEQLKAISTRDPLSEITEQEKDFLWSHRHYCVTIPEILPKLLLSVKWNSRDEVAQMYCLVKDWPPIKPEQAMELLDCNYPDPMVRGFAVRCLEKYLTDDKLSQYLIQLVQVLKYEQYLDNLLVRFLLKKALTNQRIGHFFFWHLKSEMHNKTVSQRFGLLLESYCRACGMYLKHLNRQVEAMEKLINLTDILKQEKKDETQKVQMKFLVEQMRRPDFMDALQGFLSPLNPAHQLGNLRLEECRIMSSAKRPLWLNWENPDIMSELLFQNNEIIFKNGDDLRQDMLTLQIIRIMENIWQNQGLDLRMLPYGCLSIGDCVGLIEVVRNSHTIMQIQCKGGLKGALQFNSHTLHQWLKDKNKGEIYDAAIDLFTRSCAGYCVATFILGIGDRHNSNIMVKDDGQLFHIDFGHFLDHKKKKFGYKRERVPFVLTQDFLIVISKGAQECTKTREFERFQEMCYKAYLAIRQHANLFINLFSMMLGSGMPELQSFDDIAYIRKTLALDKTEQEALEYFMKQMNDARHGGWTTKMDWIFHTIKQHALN
Chain of H1047R PIK3CA enzyme (P27986 whole entry partner): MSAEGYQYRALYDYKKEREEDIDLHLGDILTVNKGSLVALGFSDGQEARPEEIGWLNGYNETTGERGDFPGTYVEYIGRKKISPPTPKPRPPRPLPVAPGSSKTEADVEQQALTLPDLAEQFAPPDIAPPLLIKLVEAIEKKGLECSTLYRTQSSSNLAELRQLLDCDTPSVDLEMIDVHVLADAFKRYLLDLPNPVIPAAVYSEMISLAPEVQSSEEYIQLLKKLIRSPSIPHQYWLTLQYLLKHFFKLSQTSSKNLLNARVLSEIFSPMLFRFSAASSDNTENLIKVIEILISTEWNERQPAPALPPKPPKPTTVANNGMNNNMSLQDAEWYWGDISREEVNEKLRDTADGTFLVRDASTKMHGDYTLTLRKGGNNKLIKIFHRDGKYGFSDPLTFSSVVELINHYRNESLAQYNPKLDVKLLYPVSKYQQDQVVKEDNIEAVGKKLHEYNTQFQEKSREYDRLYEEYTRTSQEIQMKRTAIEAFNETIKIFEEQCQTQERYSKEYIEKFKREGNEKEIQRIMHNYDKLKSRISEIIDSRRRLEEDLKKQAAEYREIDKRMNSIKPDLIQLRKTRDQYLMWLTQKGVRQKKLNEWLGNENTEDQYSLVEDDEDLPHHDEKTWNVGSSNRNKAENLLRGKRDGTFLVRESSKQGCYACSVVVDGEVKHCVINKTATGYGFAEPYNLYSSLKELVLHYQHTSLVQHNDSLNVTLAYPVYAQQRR
For the compound `[2H]C1([2H])N(C(=O)Nc2cccc3c2[C@@H](c2cc(F)ccc2Cl)NC3=O)c2ccc(F)cc2[C@@]1(O)C(F)(F)F` (single isomer, unassigned) [Compound I-2594], the IC50 lay in the range of 1000 to 10000 nM.
In the case of `N#CCc1cc(NC(=O)N2C[C@](O)(C(F)F)c3cc(F)ccc32)c2c(c1)C(=O)N[C@@H]2c1cc(F)ccc1Cl` (single isomer, unassigned) [Compound I-2598], the IC50 was 1000 to 10000 nM.
Compound `N#CCc1cc(NC(=O)N2C[C@@](O)(C(F)F)c3cc(F)ccc32)c2c(c1)C(=O)N[C@H]2c1cc(F)ccc1Cl` (single isomer, unassigned) [Compound I-2599] showed an IC50 of 100 to 500 nM.
As for `N#CCc1cc(NC(=O)N2C[C@@](O)(C(F)F)c3cc(F)ccc32)c2c(c1)C(=O)N[C@@H]2c1cc(F)ccc1Cl` (single isomer, unassigned) [Compound I-2600], the half-inhibitory concentration (IC50) lay within 500 to 1000 nM.
As to `N#CCc1cc(NC(=O)N2C[C@@](O)(C(F)(F)F)c3ccccc32)c2c(c1)C(=O)N[C@H]2c1cc(F)ccc1Cl` (single isomer, unassigned) [Compound I-2602], the IC50 fell in the range of 1000 to 10000 nM.
With `N#CCc1cc(NC(=O)N2C[C@@](O)(C(F)(F)F)c3ccccc32)c2c(c1)C(=O)N[C@@H]2c1cc(F)ccc1Cl` (single isomer, unassigned) [Compound I-2603], the IC50 was 1000 to 10000 nM.
Regarding `N#CCc1cc(NC(=O)N2C[C@](O)(C(F)(F)F)c3ccccc32)c2c(c1)C(=O)N[C@H]2c1cc(F)ccc1Cl` (single isomer, unassigned) [Compound I-2604], the IC50 was 500 to 1000 nM.
In turn, `CNc1cc(NC(=O)N2C[C@@](O)(C(F)(F)F)c3cc(F)ccc32)c2c(c1C#N)C(=O)N[C@H]2c1cc(F)ccc1Cl` (single isomer, unassigned) [Compound I-2606] registered an IC50 of 1000 to 10000 nM.
`CNc1cc(NC(=O)N2C[C@@](O)(C(F)(F)F)c3cc(F)ccc32)c2c(c1C#N)C(=O)N[C@@H]2c1cc(F)ccc1Cl` (single isomer, unassigned) [Compound I-2607] came in with an IC50 of 1000 to 10000 nM.
The compound `CNc1cc(NC(=O)N2C[C@](O)(C(F)(F)F)c3cc(F)ccc32)c2c(c1C#N)C(=O)N[C@H]2c1cc(F)ccc1Cl` (single isomer, unassigned) [Compound I-2608] came in with an IC50 of 1000 to 10000 nM.
For `CC(C)(C#N)n1cc(-c2cc(NC(=O)N3C[C@](O)(C(F)(F)F)c4cc(F)ccc43)c3c(c2)C(=O)N[C@@H]3c2cc(F)ccc2Cl)cn1` (single isomer, unassigned) [Compound I-2610], the IC50 lay within 1000 to 10000 nM.
In turn, `CC(C)(C#N)n1cc(-c2cc(NC(=O)N3C[C@@](O)(C(F)(F)F)c4cc(F)ccc43)c3c(c2)C(=O)N[C@H]3c2cc(F)ccc2Cl)cn1` (single isomer, unassigned) [Compound I-2612] yielded an IC50 of 1000 to 10000 nM.
In turn, `N#CCc1ccc(NC(=O)N2C[C@](O)(C(F)(F)F)c3cc(F)ccc32)c2c1C(=O)N[C@@H]2c1cc(F)ccc1Cl` (single isomer, unassigned) [Compound I-2615] yielded an IC50 of 1000 to 10000 nM.
In turn, `N#CCc1ccc(NC(=O)N2C[C@@](O)(C(F)(F)F)c3cc(F)ccc32)c2c1C(=O)N[C@H]2c1cc(F)ccc1Cl` (single isomer, unassigned) [Compound I-2616] returned an IC50 of 1000 to 10000 nM.
In the case of `N#CCc1ccc(NC(=O)N2C[C@@](O)(C(F)(F)F)c3cc(F)ccc32)c2c1C(=O)N[C@@H]2c1cc(F)ccc1Cl` (single isomer, unassigned) [Compound I-2617], the half-inhibitory concentration (IC50) was in the range of 1000 to 10000 nM.
`O=C1N[C@@H](c2cc(F)ccc2Cl)c2c(NC(=O)N3C[C@](O)(C(F)(F)F)c4cc(F)ccc43)ccc(Cl)c21` (single isomer, unassigned) [Compound I-2619] showed an IC50 of 1000 to 10000 nM.
In the case of `O=C1N[C@H](c2cc(F)ccc2Cl)c2c(NC(=O)N3C[C@@](O)(C(F)(F)F)c4cc(F)ccc43)ccc(Cl)c21` (single isomer, unassigned) [Compound I-2620], the IC50 was in the range of 1000 to 10000 nM.
In turn, `O=C1N[C@@H](c2cc(F)ccc2Cl)c2c(NC(=O)N3C[C@@](O)(C(F)(F)F)c4cc(F)ccc43)ccc(Cl)c21` (single isomer, unassigned) [Compound I-2621] gave an IC50 of 500 to 1000 nM.
Take `N#CCc1cc(NC(=O)N2C[C@@](O)(C(F)(F)F)c3cc(F)ccc32)c2c(c1)C(=O)N[C@H]2c1cc(F)ccc1Cl` (single isomer, unassigned) [Compound I-2624]: the IC50 lay within 1000 to 10000 nM.
`N#CCc1cc(NC(=O)N2C[C@](O)(C(F)(F)F)c3cc(F)ccc32)c2c(c1)C(=O)N[C@H]2c1cc(F)ccc1Cl` (single isomer, unassigned) [Compound I-2625] showed an IC50 of 1000 to 10000 nM.
In turn, `N#CCc1cc(NC(=O)N2C[C@@](O)(C(F)(F)F)c3cc(F)ccc32)c2c(c1)C(=O)N[C@@H]2c1cc(F)ccc1Cl` (single isomer, unassigned) [Compound I-2626] registered an IC50 of 500 to 1000 nM.
The value for `O=C1N[C@@H](c2cc(F)ccc2Cl)c2c(NC(=O)N3C[C@@](O)(C(F)(F)F)c4cc(F)ccc43)cc(F)cc21` (single isomer, unassigned) [Compound I-2628] was 1000 to 10000 nM.
Compound `O=C1N[C@H](c2cc(F)ccc2Cl)c2c(NC(=O)N3C[C@@](O)(C(F)(F)F)c4cc(F)ccc43)cc(F)cc21` (single isomer, unassigned) [Compound I-2629] had an IC50 of 1000 to 10000 nM.
`O=C1N[C@H](c2cc(F)ccc2Cl)c2c(NC(=O)N3C[C@](O)(C(F)(F)F)c4cc(F)ccc43)cc(F)cc21` (single isomer, unassigned) [Compound I-2631] yielded an IC50 of at most 100 nM.
With `O=C1N[C@H](c2cc(F)ccc2Cl)c2c(NC(=O)N3C[C@@](O)(C(F)F)c4cc(F)ccc43)cc(F)cc21` (single isomer, unassigned) [Compound I-2632] the figure was 1000 to 10000 nM; with `O=C1N[C@@H](c2cc(F)ccc2Cl)c2c(NC(=O)N3C[C@@](O)(C(F)F)c4cc(F)ccc43)cc(F)cc21` (single isomer, unassigned) [Compound I-2633], 1000 to 10000 nM.
The value for `O=C1N[C@H](c2cc(F)ccc2Cl)c2c(NC(=O)N3C[C@](O)(C(F)F)c4cc(F)ccc43)cc(F)cc21` (single isomer, unassigned) [Compound I-2634] was 1000 to 10000 nM; that for `Cc1cn(-c2cc(NC(=O)N3C[C@@](O)(C(F)(F)F)c4cc(F)ccc43)c3c(c2)C(=O)N[C@@H]3c2cc(F)ccc2Cl)cn1` (single isomer, unassigned) [Compound I-2636] was 1000 to 10000 nM.
Consider `Cc1cn(-c2cc(NC(=O)N3C[C@@](O)(C(F)(F)F)c4cc(F)ccc43)c3c(c2)C(=O)N[C@H]3c2cc(F)ccc2Cl)cn1` (single isomer, unassigned) [Compound I-2638], for which the IC50 was in the range of 1000 to 10000 nM.
Consider `Cc1cn(-c2cc(NC(=O)N3C[C@](O)(C(F)(F)F)c4cc(F)ccc43)c3c(c2)C(=O)N[C@H]3c2cc(F)ccc2Cl)cn1` (single isomer, unassigned) [Compound I-2639], for which the IC50 was 10000 to 100000 nM.
On to `CNc1cc(NC(=O)N2C[C@](O)(C(F)(F)F)c3cc(F)ccc32)c2c(c1)C(=O)N[C@@H]2c1cc(F)ccc1Cl` (single isomer, unassigned) [Compound I-2641], for which the IC50 lay within 500 to 1000 nM.
In turn, `CNc1cc(NC(=O)N2C[C@@](O)(C(F)(F)F)c3cc(F)ccc32)c2c(c1)C(=O)N[C@H]2c1cc(F)ccc1Cl` (single isomer, unassigned) [Compound I-2642] showed an IC50 of 100 to 500 nM.
The compound `CNc1cc(NC(=O)N2C[C@](O)(C(F)(F)F)c3cc(F)ccc32)c2c(c1)C(=O)N[C@H]2c1cc(F)ccc1Cl` (single isomer, unassigned) [Compound I-2643] gave a half-maximal inhibitory concentration (IC50) of 1000 to 10000 nM.
Consider `CNc1cc(NC(=O)N2C[C@@](O)(C(F)(F)F)c3cc(F)ccc32)c2c(n1)C(=O)N[C@@H]2c1cc(F)ccc1Cl` (single isomer, unassigned) [Compound I-2645], for which the IC50 fell in the range of 1000 to 10000 nM.
Turning to `CNc1cc(NC(=O)N2C[C@@](O)(C(F)(F)F)c3cc(F)ccc32)c2c(n1)C(=O)N[C@H]2c1cc(F)ccc1Cl` (single isomer, unassigned) [Compound I-2646], the IC50 was in the range of 500 to 1000 nM.
Regarding `CNc1cc(NC(=O)N2C[C@](O)(C(F)(F)F)c3cc(F)ccc32)c2c(n1)C(=O)N[C@H]2c1cc(F)ccc1Cl` (single isomer, unassigned) [Compound I-2647], the 50% inhibitory concentration (IC50) was 100 to 500 nM.
`CC(C)(CN)n1cc(-c2cc(NC(=O)N3C[C@](O)(C(F)(F)F)c4cc(F)ccc43)c3c(c2)C(=O)N[C@@H]3c2cc(F)ccc2Cl)cn1` (single isomer, unassigned) [Compound I-2650] had an IC50 of 500 to 1000 nM.
`CC(C)(CN)n1cc(-c2cc(NC(=O)N3C[C@@](O)(C(F)(F)F)c4cc(F)ccc43)c3c(c2)C(=O)N[C@H]3c2cc(F)ccc2Cl)cn1` (single isomer, unassigned) [Compound I-2651] had an IC50 of 1000 to 10000 nM.
The value for `CC(C)(CN)n1cc(-c2cc(NC(=O)N3C[C@](O)(C(F)(F)F)c4cc(F)ccc43)c3c(c2)C(=O)N[C@H]3c2cc(F)ccc2Cl)cn1` (single isomer, unassigned) [Compound I-2652] was 1000 to 10000 nM.
Compound `O=C1N[C@H](c2cc(F)ccc2Cl)c2c(NC(=O)N3C[C@](O)(C(F)(F)F)c4cc(F)ccc43)cc(C3COC3)cc21` (single isomer, unassigned) [Compound I-2653] returned an IC50 of 10000 to 100000 nM.
The compound `O=C1N[C@H](c2cc(F)ccc2Cl)c2c(NC(=O)N3C[C@@](O)(C(F)(F)F)c4cc(F)ccc43)cc(C3COC3)cc21` (single isomer, unassigned) [Compound I-2654] had an IC50 of 1000 to 10000 nM.
For `O=C1N[C@@H](c2cc(F)ccc2Cl)c2c(NC(=O)N3C[C@@](O)(C(F)(F)F)c4cc(F)ccc43)cc(C3COC3)cc21` (single isomer, unassigned) [Compound I-2656], the IC50 was 500 to 1000 nM.
The value for `CC1(Cc2cc(NC(=O)N3C[C@@](O)(C(F)(F)F)c4cc(F)ccc43)c3c(c2)C(=O)N[C@@H]3c2cc(F)ccc2Cl)COC1` (single isomer, unassigned) [Compound I-2658] was 1000 to 10000 nM; that for `CC1(Cc2cc(NC(=O)N3C[C@](O)(C(F)(F)F)c4cc(F)ccc43)c3c(c2)C(=O)N[C@H]3c2cc(F)ccc2Cl)COC1` (single isomer, unassigned) [Compound I-2659] was 1000 to 10000 nM.

Usually IC50 stands for the point on the concentration scale where inhibition reaches its midpoint. Low values mean higher potency, high ones lower potency.
